Entries after “also recorded” stand apart in the source; their conditions may differ.
T1: GST-tagged domains of IRS1 (Rattus norvegicus, UniProt P35570)
T1 construct: GST-tagged IRS1 domains (N: aa 2-516, M: aa 526-859 and C: 900-1235); made in house
T1 sequence (P35570 2-516): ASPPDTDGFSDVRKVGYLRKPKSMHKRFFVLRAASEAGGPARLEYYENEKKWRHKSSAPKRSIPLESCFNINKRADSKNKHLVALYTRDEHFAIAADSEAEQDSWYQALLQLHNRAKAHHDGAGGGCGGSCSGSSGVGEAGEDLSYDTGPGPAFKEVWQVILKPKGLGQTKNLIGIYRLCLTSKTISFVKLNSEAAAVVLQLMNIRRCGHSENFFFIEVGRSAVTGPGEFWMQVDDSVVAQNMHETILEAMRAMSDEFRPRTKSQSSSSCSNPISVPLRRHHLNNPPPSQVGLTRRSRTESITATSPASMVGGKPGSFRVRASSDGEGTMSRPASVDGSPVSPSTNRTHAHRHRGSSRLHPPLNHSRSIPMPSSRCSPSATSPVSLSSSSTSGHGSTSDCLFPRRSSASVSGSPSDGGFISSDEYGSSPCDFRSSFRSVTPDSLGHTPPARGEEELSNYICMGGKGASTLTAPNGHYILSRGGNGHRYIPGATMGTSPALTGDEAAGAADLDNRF

B1: His-GIV-CT: Recombinant His-tagged GIV-CT (aa 1660-1870) expressed from pET28b (protein)
chain: ETLESRHHKIKTGSPGSEVVTLQQFLEESNKLTSVQIKSSSQENLLDEVMKSLSVSSDFLGKDKPVSCGLARSVSGKTPGDFYDRRTTKPEFLRPGPRKTEDTYFISSAGKPTPGTQGKIKLVKESSLSRQSKDSNPYATLPRASSVISTAEGTTRRTSIHDFLTKDSRLPISVDSPPAAADSNTTAASNVDKVQESRNSKSRSREQQSS
modifications: left off: small tags and cut ends
notes: Recombinant His-tagged GIV-CT (aa 1660-1870) expressed from pET28b

Columns and labels:
[1] = test system: GIV binding to GST-Gαi3 [preloaded with GDP]; assay: GST-Gαi3 pulldown of GIV from lysates of PA-treated L6 myoblasts; settings: L6 treated with PA 0.5 mM, 16 h
Experimental: (§1) Purified GST-Gαi3, GST-tagged IRS1 domains or GST alone were immobilized on glutathione-Sepharose beads (GE Healthcare) for 1 h at room temperature as described before (Garcia-Marcos et al., 2012; Ghosh et al., 2010; Ghosh et al., 2008; Lin et al., 2011). L6 lysates or His-GIV CT protein were added to each tube, and binding reactions were carried out for 4 h at 4° C. with constant tumbling in binding buffer [50 mM Tris-HCl (pH 7.4), 100 mM NaCl, 0.4% (v:v) Nonidet P-40, 10 mM MgCl2, 5 mM EDTA, 2 mM DTT, protease inhibitor mixture]. Beads were washed (4×) with 1 mL of wash buffer [4.3 mM Na2HPO4, 1.4 mM KH2PO4 (pH 7.4), 137 mM NaCl, 2.7 mM KCl, 0.1% (v:v) Tween 20, 10 mM MgCl2, 5 mM EDTA, 2 mM DTT] and bound complexes were eluted by boiling in Laemmli's sample buffer. When GST-Gαi3 was used in the assay, both binding buffer and washing buffer were supplemented with 30 μM GDP and bound proteins were eluted by incubating at 37° C.

[2] = test system: GIV, IRS1 and Akt phosphorylation; assay: Metabolic insulin signaling in L6 cells by immunoblotting; assay type: cell-based, rat
Experimental: (§2) Transfection was carried out with GeneJuice (Novagen) for DNA plasmids or Oligofectamine (Invitrogen) for siRNA oligos according to manufacturer's protocols. Silencer negative Control scrambled (Scr) siRNA used as control was purchased from Ambion and the previously validated (Enomoto et al., 2005) GIV siRNA sequence used was custom-ordered from Dharmacon. For TAT-construct transduction, cells were incubated with 300-800 nM of the TAT-proteins for 30 min at 37° C. prior to three washes with PBS and addition of fresh growth media. For assays involving insulin (Novagen) stimulation of TAT-treated cells, such stimulation was carried out 90 min after transduction.
(§3) Unless otherwise indicated, serum starvation of cells for use in experiments involving insulin stimulation was carried out by growing cells overnight in the presence of no serum (i.e., 0% FBS) in the case of Cos7 and L6 cells, or in the presence of 0.2% FBS in the case of HeLa cells. To induce IR, cells were pre-treated with Sodium Palmitate (PA; Sigma-Aldrich) (0.5 mM, stock solution at 5 mM/5% FFA-free BSA in ethanol) or vehicle control (5% FFA-free BSA in ethanol) for 16 h. To reverse IR with TZDs, cells were treated with 50 μM Pioglitazone (Pio) (Sigma-Aldrich) or DMSO (vehicle control) for 18 h prior to stimulation with 100 nM insulin. Treatment with PKCθ pseudo-substrate inhibitor (Santa Cruz Biotechnologies) was performed at 10 μM for 16 h.
Protein samples for immunoblotting were run on SDS/PAGE gels and transferred onto PVDF membranes (Millipore). Membranes were blocked with PBS containing 5% non-fat milk (or with 5% BSA when probing for phosphorylated proteins) before incubation with primary antibodies. GIV was detected using rabbit anti-GIV coiled-coil (Millipore) (1:500); GIV-CT (Santa Cruz Biotechnologies) (1:500); phospho-Tyr1764-GIV (1:500) and phospho-Ser1689-GIV (21st Century Biochemicals) (1:250) antibodies. Other antibodies used in this work include rabbit polyclonal antibodies against Gαi3 (1:333), pan-GP (1:250) and phospho-IRS1 (1:500) from Santa Cruz Biotechnologies; and phospho-Akt (1:250); total Akt (1:250); phospho-ERK (1:250); phospho-AS160 (1:250); total InsRβ (1:500) and total IRS1 (1:500) from Cell signaling. Mouse monoclonal Abs against phospho-InsRβ (1:250), His (1:1000), β-tubulin (1:1000), GFP (1:500) from Santa Cruz Biotechnologies, and control IgG (Bio-Rad Laboratories) were commercially obtained. Goat anti-rabbit and goat anti-mouse Alexa Fluor 680 or IRDye 800 F(ab′)2 secondary antibodies were purchased from Li-Cor Biosciences. Images were processed with ImageJ software (NIH) and assembled as figure panels using Photoshop and Illustrator software (Adobe).

L6 myotubes = assay: Fluorometric 2-deoxyglucose uptake assay after insulin stimulation; assay type: cell-based, rat
Experimental: as §2, §3
Glucose uptake assays were performed without the use of radioisotopes as described previously (Yamamoto et al., 2006). HeLa and L6 cells grown in 6-well plates were stimulated with insulin in KRH Buffer [50 mM HEPES, 137 mM NaCl, 4.7 mM KCl, 1.85 mM CaCl2, 1.3 mM MgSO4, and 0.1% (w/v) BSA-FFA free, pH 7.4]. Cells were incubated with 1 mM 2-deoxyglucose (2-DG) for 20 min, washed, and subsequently lysed with 0.1 N NaOH. The lysates were transferred into eppendorf tubes and samples were incubated in a water bath maintained at 80° C. for 45 min to degrade endogenous NAD(P)H and NAD(P)^+. An equal volume each of 0.1 N HCl and Triethanolamine (200 mM TEA, pH 8.1) buffer were added to each tube. Samples were subsequently mixed with assay solution [50 mM TEA, 0.02% BSA-FFA free, 10 μM NAD(P)^+, 0.2 U/ml Diaphorase, 6 nM Resazurin sodium, 15 U/ml G6PDH (Santa Cruz Biotechnologies)] and incubated at 37° C. for 90 min. Fluorescence intensity (λex=550 nM, λem=590 nM) was determined using a Tecan Inifinite M1000 PRO and normalized to total protein, as determined using BCA assay (Thermo Scientific).

[3] = target: T1, GST-tagged domains of IRS1; assay: Pulldown of recombinant His-GIV-CT with GST-tagged IRS1 domains; assay type: binding; settings: recombinant proteins
Experimental: as §1

| Molecule | GIV's ability to bind Gi (Gαi3) [1] | phosphorylation of GIV at Y1764 ([2]; L6 cells treated with PA) | phosphorylation of GIV at S1689 ([2]; L6 cells treated with PA (0.5 mM, 16 h)) | induction of IR (glucose-uptake response to insulin) (L6 myotubes; L6-GIV-SA cells (S1689A)) | induction of IR (glucose-uptake response to insulin) (L6 myotubes; L6-GIV-WT cells) | binding to IRS1 domains [3] |
| --- | --- | --- | --- | --- | --- | --- |
| CCCCCCCCCCCCCCCC(=O)[O-].[Na+] [PA, Sodium Palmitate, reference compound] | reduced; also recorded: loss of binding | suppressed | enhanced | resistant to PA | induced IR | – |
| B1 | – | – | – | – | – | specifically bound the N-terminus of IRS1 |
